{"source": "patent US20230248791A1", "about": "“METHODS FOR MANUFACTURING ANGELICA GIGAS NAKAI EXTRACT USING FERMENTATION BACTERIA” (Sooy-K Co., Ltd., priority 2022, published 2023)", "origin": "cited, not measured here", "key": {"[1]": {"system": "ex vivo 3D human skin model"}, "[2]": {"system": "microphthalmia-associated transcription factors (MITFs)", "details": "via PKA/CREB, p38/ERK MARK, PI3K/Akt/GSK-3β"}, "cyclooxygenase-2 (COX-2)": {"biological_target": "T1, cyclooxygenase-2 (COX-2) (Homo sapiens, UniProt P35354)", "T1 sequence (P35354 18-604)": "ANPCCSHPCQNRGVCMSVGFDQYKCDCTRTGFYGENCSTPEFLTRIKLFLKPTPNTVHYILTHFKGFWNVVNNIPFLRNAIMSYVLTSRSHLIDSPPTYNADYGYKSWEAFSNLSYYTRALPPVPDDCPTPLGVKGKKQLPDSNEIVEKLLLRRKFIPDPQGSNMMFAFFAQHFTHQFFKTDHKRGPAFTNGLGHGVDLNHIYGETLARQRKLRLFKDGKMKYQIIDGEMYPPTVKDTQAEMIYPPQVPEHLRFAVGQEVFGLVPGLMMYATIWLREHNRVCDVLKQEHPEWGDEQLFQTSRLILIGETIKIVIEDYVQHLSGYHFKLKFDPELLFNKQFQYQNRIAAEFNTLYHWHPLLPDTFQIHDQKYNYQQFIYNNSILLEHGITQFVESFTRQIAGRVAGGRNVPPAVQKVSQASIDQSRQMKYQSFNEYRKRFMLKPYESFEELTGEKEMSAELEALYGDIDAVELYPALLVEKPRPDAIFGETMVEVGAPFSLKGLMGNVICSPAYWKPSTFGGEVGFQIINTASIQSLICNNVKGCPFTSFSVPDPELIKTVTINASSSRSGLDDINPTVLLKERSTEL"}}}
{"smiles": "CC(C)=CC(=O)OC1Cc2cc3ccc(=O)oc3cc2OC1(C)C", "note": "(stereo not shown) [decursin, 3-methyl-2-butenoic acid 2,2-dimethyl-8-oxo-3,4-dihydro-2H,8H-pyrano[3,2-g]chromen-3-yl ester]", "values": [{"measurement": "melanin synthesis", "setting": "[1]", "value": "prevents melanin synthesis"}, {"measurement": "effect on MITFs, major transcription factor in melanin synthesis", "setting": "[2]", "value": "inhibit"}, {"measurement": "effect on COX-2 (anti-inflammatory mechanism)", "setting": "cyclooxygenase-2 (COX-2)", "value": "inhibiting cyclooxygenase-2 (COX-2)"}, {"measurement": "UVA/UVB-induced skin damage and skin aging", "setting": "human dermal fibroblast", "value": "inhibits UVA/UVB-induced skin damage and skin aging"}]}
